Article PMC9611166, “Cocrystal Prediction of Bexarotene by Graph Convolution Network and Bioavailability Improvement” (Pharmaceutics, 2022)
In brackets after ≈: the same amount, converted by molar mass.

Experiments:
[1] = Equilibrium solubility in buffer solutions with 0.05% CTAB; type: physicochemical; settings: for solubility thermodynamic at 1 day: buffer solution with 0.05% CTAB, aqueous with cosolvent or surfactant or cyclodextrin, thermodynamic from solid, 0.05% CTAB, 37 °C, one day
Procedure: (§1) The concentration of BEX samples was detected by the Agilent 1260 Series Infinite HPLC. The Eclipse XDB-C18 column (4.6 × 150 mm, 5 μm) was used to separate the analytes. The column temperature was set at 30 °C and the injection volume was 10 μL. The mobile phase was composed of 0.1% trifluoroacetic acid in water and acetonitrile (10:90, v/v) pumped at 1.0 mL/min. The 260 nm was set as the UV-vis detection wavelength.
Excess amounts (10 mg) of BEX and four cocrystals samples were added to the 4 mL of pH 2.0, 4.5, and 6.8 buffer solutions respectively, with the presence of 0.05% CTAB (hexadecyl trimethyl ammonium bromide). Then the saturated solutions were stirred at 300 rpm for one day at 37 °C. The equilibrium solubility of BEX was determined by HPLC after filtering the solutions.

[2] = Powder dissolution at pH 6.8 with 0.05% CTAB; type: physicochemical
Procedure: as §1
The solid samples of BEX and four cocrystals were sieved through 100-mesh sieves. In total, 20 mg of BEX and corresponding cocrystal powders (n = 3) were added to pH 6.8 phosphate buffer with the presence of 0.05% CTAB at 37 °C, rotating at 100 rpm. The samples were collected at 5, 10, 15, 20, 30, 40, 50, and 60 min. The concentration was measured by HPLC.

Pharmacokinetics in rats = type: in vivo; settings: male, Sprague-Dawley, rat, plasma, po, 10 mg/kg BEX, 0.5% CMC-Na suspension, mean ± SD
Procedure: The PK studies were performed according to the Guide for Care and Use of Laboratory Animals and were approved by the Institutional Animal Care and Use Committee of Shanghai Institute of Materia Medica. There were two groups of male Sprague−Dawley rats and the number of rats is six in each group. […] The dose is 10 mg/kg BEX. The animals had free access to water and fasted overnight before dosing. After the administration, the 600 μL blood sample was collected at 0.5, 1, 2, 3, 4, 6, and 8 h. Plasma was separated by centrifugation (14,000 rpm, 10 min) and stored at −80 °C. In total, 200 μL of rat plasma sample was mixed with 600 μL acetonitrile through a vortex mixer for 20 min and centrifuged for 5 min (14,000 rpm). The BEX concentration was measured by the SCIEX Triple Quad™ 4500 LC-MS instrument. The analytes were separated by the Supelco Ascentis Express C18 column (2.1 × 50 mm, 2.7 μm). The column temperature was set at 35 °C. The mobile phase was composed of 0.2% formic acid in water (solvent A) and acetonitrile (solvent B) pumped at 0.6 mL/min. The gradient elution program started with 55% B and increased linearly to 90% B at 1.5 min and held for 0.5 min. It returned to the 55% B at the 3 min and held for 2 min. The injection volume was 10 μL, and the UV-vis detection wavelength was set at 260 nm. The negative ion detection mode was operated in the mass spectrometer. Multiple reaction monitoring modes (MRM) was used to perform the detection and quantification, with m/z 347.3→303.0 for BEX. The DAS 2.0 program was used to perform the PK analysis.

[3] = set-up: method as in PMID 24333772; settings: cited from earlier work

solubility thermodynamic at 1 day ([1]; pH 2.0 buffer): < 10 µg/mL | solubility thermodynamic at 1 day ([1]; pH 4.5 buffer): > 10 µg/mL | solubility thermodynamic at 1 day ([1]; pH 6.8 buffer): ~30 µg/mL (≈ 86.1 µM) | pH value of solution after equilibrium solubility experiment ([1]; starting buffer pH 2.00, n = 3): 2.06 ± 0.01 | pH value of solution after equilibrium solubility experiment ([1]; starting buffer pH 4.50, n = 3): 4.58 ± 0.01 | pH value of solution after equilibrium solubility experiment ([1]; starting buffer pH 6.80, n = 3): 6.82 ± 0.02 | pH value of solution after powder dissolution ([2]; pH 6.8, n = 3): 6.81 ± 0.01 | solubility at 60 min ([2]; phosphate buffer with 0.05% CTAB, aqueous with cosolvent or surfactant or cyclodextrin, thermodynamic from solid, pH 6.8 phosphate buffer, 0.05% CTAB, 37 °C, 60 min, read-out: measured solubility in powder dissolution after 60 min): ~30 µg/mL (≈ 86.1 µM) | AUC(0-inf) (Pharmacokinetics in rats): 8790 ± 1080 ng·h/mL | Cmax (Pharmacokinetics in rats): 1680 ± 559 ng/mL | half-life (Pharmacokinetics in rats): 2.98 ± 1.18 h | AUC(0-t) (Pharmacokinetics in rats; read-out: AUC0−8h): 7220 ± 811 ng·h/mL
SMILES: C=C(c1ccc(C(=O)O)cc1)c1cc2c(cc1C)C(C)(C)CCC2(C)C [BEX, Bexarotene]
absolute bioavailability [3]: less than 20%
